“And” between values parts separate entries of the source, which are not always exact repeats. Equal values may be shown once. Values belong to the molecule of their own block, whether it stands above or below them.
Test system: 817829-284-R-J1-PDC complex spheroids, viability
Experiment: Anticancer human tumor 817829-284-R-J1-PDC patient-derived colon adenocarcinoma cell line growth inhibition [CLK]
Conditions: for viability, T/C: stronger effect = lower value
Description: A high-throughput screen of multi-cell type tumor spheroids was designed to identify active combinations of […] and targeted small molecules. Complex spheroids include a stromal component modeled by human endothelial cells (HUVEC) and fibroblasts modeled by human mesenchymal stem cells (MSCs). The concentration ranges selected for each drug and investigational agent were based upon clinically achievable concentrations if the clinical Cmax of the agent was known.
Compounds. The drugs and investigational agents: cirtuvivint (SM08502; NSC835563), CC-671 (NSC850746), vemurafenib (NSC761431), tapotoclax (NSC804041), sotorasib (NSC818433), adagrasib (NSC831453), MRTX-1133 (NSC836407), BAY2416964 (NSC825713), copanlisib (NSC816437), inavolisib (NSC800729), abemaciclib (NSC768073), osimertinib (NSC779217), entinostat (NSC756642), eltanexor (KPT-8602, NSC794443), venetoclax (NSC766270), ceralasertib (NSC777638), bortezomib (NSC756655), olaparib (NSC753686), talazoparib (NSC767125), alisertib (NSC759677), peposertib (NSC802822), gemcitabine (NSC613327), 5-fluorouracil (NSC19893), SN-38 (NSC673596), oxaliplatin (NSC266046), paclitaxel (NSC125973), and doxorubicin (NSC123127), were obtained from the National Cancer Institute (NCI) Developmental Therapeutics Program Chemical Repository. The FDA-approved anticancer drug set is available from the Developmental Therapeutics Program at https://dtp.cancer.gov/organization/dscb/obtaining/available plates.htm. […] The stock solutions were prepared in dimethyl sulfoxide (DMSO, Sigma-Aldrich, St. Louis, MO, cat. D2650), except for the platinum complexes which were prepared in saline (Quality Biological, Gaithersburg, MD, cat. 114-055-101), at 800-fold the tested concentration and stored at -70 degrees C prior to their use. All drugs and investigational agents were tested over a range starting from a high concentration at or near the clinical Cmax and decreasing in half-log increments. If the clinical Cmax for an agent had not been determined, the highest concentration tested was 10 microM.
Cell Culture. All cells were maintained in an incubator at 37 degrees C and 5% CO2 with 95% humidity. The PDC lines were cultured according to standard operating procedures established by the NCI PDMR. Briefly, all PDCs were thawed and cultured in Matrigel-coated flasks prepared with a working solution of 1X Ham's F-12 nutrient mix, without supplementation (Invitrogen, Waltham, MA, cat. 11765054), 100 U/mL penicillin-streptomycin (Invitrogen, cat. 15140122), and 2.5% Matrigel (Corning Inc., Corning, NY, cat. 354248) for the first three passages. The 947758-054-R-J2-PDC line was cultured in 6B/Colon 1A media, which includes advanced DMEM/F-12 (Thermo Fisher Scientific, cat. 12634028), 10 mM HEPES (Thermo Fisher Scientific, cat. 15630080), 1X GlutaMAX supplement (Thermo Fisher Scientific, cat. 35050061), 0.1 mg/mL primocin (InvivoGen, cat. ant-pm-2), 10% defined fetal bovine serum, heat inactivated (HyClone Laboratories Inc., cat. SH30070.03HI), 1.25 mM N-Acetyl-L-cysteine (Sigma-Aldrich, cat. A9165), 10 mM nicotinamide (Sigma-Aldrich, cat. N0636), 1X B-27 supplement (Thermo Fisher Scientific, cat. 17504044), 1X N-2 supplement (Thermo Fisher Scientific, cat. 17502048), and 10 microM Y-27632 dihydrochloride (Tocris Bioscience, cat. 1254). The 876862-298-R-J1-PDC was cultured in 6E media, which includes all 6B/Colon 1A media components plus 50% L-WRN conditioned media (ATCC, cat. CRL-3276), 50 ng/mL recombinant human EGF recombinant protein (hEGF; Thermo Fisher Scientific, cat. PHG0311), 10 ng/mL recombinant human fibroblast growth factor 10 (hGFG-10; PeproTech, cat. 100-26), 1 ng/mL recombinant human fibroblast growth factor 2 (hFGF-2; PeproTech, cat. 100-18B), and 1 µM prostaglandin E2 (PGE2; Tocris, cat. 2296). The 227483-062-R1-J1-PDC line was cultured in Panc media, containing all 6E components except hFGF-2, with the addition of 500 nM SB-431542 (Selleckchem, cat. S1067) and 10 nM gastrin (Tocris, cat. 3006). […]

[1] = curve of first compound, second compound 0.0316 µM
[2] = curve of first compound, second compound 0.1 µM
[3] = curve of first compound, second compound 0.316 µM
[4] = curve of first compound, second compound 1 µM
[5] = curve of first compound, second compound 3.16 µM
[6] = curve of first compound, second compound 10 µM
[7] = second compound 0.0316 µM, first compound 0.0316 µM
[8] = second compound 0.0316 µM, first compound 0.1 µM
[9] = second compound 0.0316 µM, first compound 0.316 µM
[10] = second compound 0.0316 µM, first compound 1 µM
[11] = second compound 0.0316 µM, first compound 3.16 µM
[12] = second compound 0.0316 µM, first compound 10 µM
[13] = second compound 0.1 µM, first compound 0.0316 µM
[14] = second compound 0.1 µM, first compound 0.1 µM
[15] = second compound 0.1 µM, first compound 0.316 µM
[16] = second compound 0.1 µM, first compound 1 µM
[17] = second compound 0.1 µM, first compound 3.16 µM
[18] = second compound 0.1 µM, first compound 10 µM
[19] = second compound 0.316 µM, first compound 0.0316 µM
[20] = second compound 0.316 µM, first compound 0.1 µM
[21] = second compound 0.316 µM, first compound 0.316 µM
[22] = second compound 0.316 µM, first compound 1 µM
[23] = second compound 0.316 µM, first compound 3.16 µM
[24] = second compound 0.316 µM, first compound 10 µM
[25] = second compound 1 µM, first compound 0.0316 µM
[26] = second compound 1 µM, first compound 0.1 µM
[27] = second compound 1 µM, first compound 0.316 µM
[28] = second compound 1 µM, first compound 1 µM
[29] = second compound 1 µM, first compound 3.16 µM
[30] = second compound 1 µM, first compound 10 µM
[31] = second compound 3.16 µM, first compound 0.0316 µM
[32] = second compound 3.16 µM, first compound 0.1 µM
[33] = second compound 3.16 µM, first compound 0.316 µM
[34] = second compound 3.16 µM, first compound 1 µM
[35] = second compound 3.16 µM, first compound 3.16 µM
[36] = second compound 3.16 µM, first compound 10 µM
[37] = second compound 10 µM, first compound 0.0316 µM
[38] = second compound 10 µM, first compound 0.1 µM
[39] = second compound 10 µM, first compound 0.316 µM
[40] = second compound 10 µM, first compound 1 µM
[41] = second compound 10 µM, first compound 3.16 µM
[42] = second compound 10 µM, first compound 10 µM
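Also: spheroids exposed to the agents for seven days before readout.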

- IC50 (compound alone, run of 08/14/2023): 49.5 nM [middle of 12 runs]
SMILES: CN1CCN(c2cc(C(=O)Nc3cc4cc(-c5cnn(C)c5)ccc4cn3)ccn2)CC1
- viability, T/C (compound 0.0316 µM): 70.5% [middle of 12 runs]
- viability, T/C (compound 0.1 µM): 20% [middle of 12 runs]
- viability, T/C (compound 0.316 µM): 2.17% [middle of 12 runs]
- viability, T/C (compound 1 µM): 0.13% [middle of 8 runs]
- viability, T/C (compound 3.16 µM): 0.17% [middle of 7 runs]
- viability, T/C (compound 10 µM): 0.13% [middle of 8 runs]

- IC50 [1]: < 31.6 nM
- IC50 [2]: < 31.6 nM
- IC50 [3]: < 31.6 nM
- IC50 [4]: < 31.6 nM
- IC50 [5]: < 31.6 nM
- IC50 [6]: < 31.6 nM
SMILES: CC(CO)NC(=O)c1cc(-c2ccc(Cl)cc2)nn(-c2cnn(C)c2)c1=O (stereo not given) + CNC(=O)c1ccc(Nc2nc(OC3CCCC3)c3c(-c4ccc5nc(C)oc5c4)c[nH]c3n2)c(OC)c1
- viability, T/C [7]: 38.7%
- viability, T/C [8]: 34.8%
- viability, T/C [9]: 32.9%
- viability, T/C [10]: 31%
- viability, T/C [11]: 28.5%
- viability, T/C [12]: 23.4%
- viability, T/C [13]: 24.2%
- viability, T/C [14]: 23.8%
- viability, T/C [15]: 27.7%
- viability, T/C [16]: 21.3%
- viability, T/C [17]: 39.8%
- viability, T/C [18]: 21.4%
- viability, T/C [19]: 27.4%
- viability, T/C [20]: 29.7%
- viability, T/C [21]: 24.1%
- viability, T/C [22]: 24.7%
- viability, T/C [23]: 16.1%
- viability, T/C [24]: 19.2%
- viability, T/C [25]: 14.1%
- viability, T/C [26]: 36.8%
- viability, T/C [27]: 16%
- viability, T/C [28]: 16.2%
- viability, T/C [29]: 15.8%
- viability, T/C [30]: 10.7%
- viability, T/C [31]: 22.3%
- viability, T/C [32]: 20.2%
- viability, T/C [33]: 18.7%
- viability, T/C [34]: 17.9%
- viability, T/C [35]: 18.6%
- viability, T/C [36]: 19.4%
- viability, T/C [37]: 24.3%
- viability, T/C [38]: 16.7%
- viability, T/C [39]: 41.6%
- viability, T/C [40]: 18.7%
- viability, T/C [41]: 14.1%
- viability, T/C [42]: 16.8%

- IC50 (curve of compound): < 31.6 nM
SMILES: CC(=O)O[C@H]1C(=O)[C@@]2(C)[C@H]([C@H](OC(=O)c3ccccc3)[C@]3(O)C[C@H](OC(=O)[C@H](O)[C@@H](NC(=O)c4ccccc4)c4ccccc4)C(C)=C1C3(C)C)[C@]1(OC(C)=O)CO[C@@H]1C[C@@H]2O
- viability, T/C (compound 0.0316 µM): 5.82% and 6.97%
- viability, T/C (compound 0.1 µM): 4.87% and 7.28%
- viability, T/C (compound 0.316 µM): 5.22% and 6.91%
- viability, T/C (compound 1 µM): 5.4% and 7.87%
- viability, T/C (compound 3.16 µM): 6.88% and 8.37%
- viability, T/C (compound 10 µM): 6.36% and 7.7%

The next lines start with the molecule.

SMILES: C=CC(=O)N1CCN(c2nc(=O)n(-c3c(C)ccnc3C(C)C)c3nc(-c4c(O)cccc4F)c(F)cc23)C(C)C1 (stereo not given) + CN1CCN(c2cc(C(=O)Nc3cc4cc(-c5cnn(C)c5)ccc4cn3)ccn2)CC1
- IC50 [1]: 3090 nM
- IC50 [2]: < 31.6 nM
- IC50 [3]: < 31.6 nM
- IC50 [4]: < 31.6 nM
- IC50 [5]: < 31.6 nM
- IC50 [6]: < 31.6 nM
- viability, T/C [7]: 75.7%
- viability, T/C [8]: 70.6%
- viability, T/C [9]: 60.9%
- viability, T/C [10]: 76.9%
- viability, T/C [11]: 49.6%
- viability, T/C [12]: 32.2%
- viability, T/C [13]: 24.9%
- viability, T/C [14]: 25.4%
- viability, T/C [15]: 22.4%
- viability, T/C [16]: 22.8%
- viability, T/C [17]: 16.1%
- viability, T/C [18]: 10.7%
- viability, T/C [19]: 2.69%
- viability, T/C [20]: 2.73%
- viability, T/C [21]: 3%
- viability, T/C [22]: 3.05%
- viability, T/C [23]: 3.47%
- viability, T/C [24]: 1.56%
- viability, T/C [25]: 0.15%
- viability, T/C [26]: 0.15%
- viability, T/C [27]: 0.22%
- viability, T/C [28]: 0.15%
- viability, T/C [29]: 0.1%
- viability, T/C [30]: 0.16%
- viability, T/C [31]: 0.16%
- viability, T/C [32]: 0.28%
- viability, T/C [33]: 0.2%
- viability, T/C [34]: 0.16%
- viability, T/C [35]: 0.51%
- viability, T/C [36]: 0.15%
- viability, T/C [37]: 0.08%
- viability, T/C [38]: 0.11%
- viability, T/C [39]: 0.12%
- viability, T/C [40]: 0.13%
- viability, T/C [41]: 0.12%
- viability, T/C [42]: 0.13%

SMILES: O=c1[nH]cc(F)c(=O)[nH]1
- viability, T/C (compound 0.0316 µM): 66% and 85.8%
- viability, T/C (compound 0.1 µM): 74.9% and 79.8%
- viability, T/C (compound 0.316 µM): 98.9% and 85%
- viability, T/C (compound 1 µM): 67.1% and 46.5%
- viability, T/C (compound 3.16 µM): 63.9% and 53.2%
- viability, T/C (compound 10 µM): 39.6% and 38%
- IC50 (curve of compound): 5960 nM and 898 nM

From PubChem BioAssay AID2060599 (Molecular Pharmacology Branch, DTP, NCI, 2025)
